Experimental data: US20250049776A1, “AUTOPHAGY INDUCING COMPOUNDS AND USES THEREOF, IN PARTICULAR FOR A SYSTEMIC TREATMENT OF DISEASES AND CONDITIONS” (Samsara Therapeutics Inc., priority 2021, published 2025)
Read-outs that look alike come from different tables or passages of the source.

Tested on: Human osteosarcoma U20S cells
Assay: Assay to measure lysosome and autolysosome formation (acidic vesicle formation, LysoView/LysoTracker staining)
Assay type: cell-based
Settings: for activation at 0.8 µM: Homo sapiens
Protocol: Lysosomes play a fundamental role in the autophagic pathway by fusing with autophagosomes and creating ‘autolysosomes’ in order to digest their contents. Stimulation of lysosome and autolysosome formation by a compound is indicative of a stimulation of autophagy. The ability of compounds to stimulate lysosome and autolysosome formation, and thus autophagy, in live cells was assessed via fluorescent microscopy using various fluorescent stains for labelling and tracking acidic organelles (including lysosomes and autolysosomes) such as: LysoView™ 650 (70059 and 70059-T, Biotium), LysoViewTM633 (70058 and 70058-T, Biotium) and LysoTracker™ Deep Red (L12492, ThermoFisher Scientific). The cellular phenotype was quantitatively assessed for the induction of acidic vesicle formation and compared to a non-treated control, thus providing a measure of the ability of the compound under investigation to stimulate autophagy.
Representative procedure using LysoView™633 dye or LysoTracker™ Deep Red dye: Human osteosarcoma U20S cells (40,000 cells/well) were seeded in a 24 well glass bottom plate (Sensoplate, Greiner Bio-One) and were incubated overnight in a humidified atmosphere at 37° C. and 5% CO2. Cells were grown in DMEM (Gibco) supplemented with 10% Fetal Bovine Serum (FBS) and 100 units/ml penicillin and 100 μg/ml streptomycin (Invitrogen). After the attachment period, cells were treated with different compounds of interest (at various concentrations in DMSO) or DMSO (non-treated control) in cell culture medium and were incubated for 24 hours. Compound-containing medium was removed and cells were incubated with pre-warmed cell culture medium containing 1× LysoView™ 633 (70058 and 70058-T, Biotium) or 50 nM LysoTracker™ Deep Red (L12492, ThermoFisher Scientific) for 45 minutes at 37° C. Finally, cell nuclei were stained for 10 minutes using Hoechst 33342 (1 μg/mL) and then the medium was replaced with fresh medium. The 24 well plate was then fitted into a heated stage on the microscope and cells maintained at 37° C. Images were captured using appropriate filter set for Cy5 and DAPI detection with the EVOS M7000 Microscope (ThermoFisher Scientific). The cellular phenotype was visually assessed for the induction of acidic vesicle formation relative to the non-treated control; multiple images were acquired and analyzed using ImageJ or Cell Profiler.

[1] = U2OS cells, concentration of 0.8 μM, read-out: Activity (percentage increase in acidic vesicle formation over the DMSO-treated control), Table 2

SMILES | activation at 0.8 µM [1] | other results
CC(C)N(C(=O)c1csc(-c2cnn(-c3ccccc3C(F)(F)F)c2)n1)C1CCNCC1 [Compound 47, N-(piperidin-4-yl)-N-(propan-2-yl)-2-{1-[2-(trifluoromethyl)phenyl]-1H-pyrazol-4-yl}-1,3-thiazole-4-carboxamide] | 30 to 50% | 
CCCN(C(=O)c1cc(-c2cnn(-c3ccccc3)c2)c[nH]1)C1CCNC1 (stereo not shown) [Compound 123, 4-(1-phenyl-1H-pyrazol-4-yl)-N-propyl-N-(pyrrolidin-3-yl)-1H-pyrrole-2-carboxamide] | > 100% | activation at 0.8 µM (U2OS cells, concentration of 0.8 μM, read-out: Activity (percentage increase in acidic vesicle formation), Table 2a Preferred compounds): 50 to 100%; Activity (percentage increase in acidic vesicle formation), Table 2b More preferred compounds (U2OS cells, concentration of 0.8 μM): ++++ (a percentage increase in acidic vesicle of greater than 100% over the DMSO-treated control)
CCCN(C(=O)c1csc(-c2cnn(-c3cccc(OC(F)(F)F)c3)c2)n1)[C@@H]1CCNC1 [Compound 26, N-propyl-N-[(3R)-pyrrolidin-3-yl]-2-{1-[3-(trifluoromethoxy)phenyl]-1H-pyrazol-4-yl}-1,3-thiazole-4-carboxamide] | 30 to 50% | 
NC[C@H]1CCCN1C(=O)c1ccc(-c2cnn(-c3ccccc3)c2)o1 [Compound 11, 1-[(2R)-1-[5-(1-phenyl-1H-pyrazol-4-yl)furan-2-carbonyl]pyrrolidin-2-yl]methanamine] | 10 to 30% | 
CCCN(C(=O)c1csc(-c2cnn(-c3ccc(Cl)cc3)c2)n1)[C@H]1CCNC1 [Compound 40, 2-[1-(4-chlorophenyl)-1H-pyrazol-4-yl]-N-propyl-N-[(3S)-pyrrolidin-3-yl]-1,3-thiazole-4-carboxamide] | 10 to 30% | 
CCCN(C(=O)c1csc(-c2cnn(-c3ccccc3C(F)(F)F)c2)n1)[C@H]1CCNC1 [Compound 82, N-propyl-N-[(3S)-pyrrolidin-3-yl]-2-{1-[2-(trifluoromethyl)phenyl]-1H-pyrazol-4-yl}-1,3-thiazole-4-carboxamide] | 30 to 50% | 
NC[C@H]1CCCN1C(=O)c1csc(-c2cnn(-c3ccc(C(F)(F)F)cc3)c2)n1 [Compound 76, 1-[(2R)-1-(2-{1-[4-(trifluoromethyl)phenyl]-1H-pyrazol-4-yl}-1,3-thiazole-4-carbonyl)pyrrolidin-2-yl]methanamine] | 10 to 30% | 
CCCN(C(=O)c1csc(-c2ccc(-c3ccccc3)s2)n1)[C@@H]1CCNC1 [Compound 70, 2-(5-phenylthiophen-2-yl)-N-propyl-N-[(3R)-pyrrolidin-3-yl]-1,3-thiazole-4-carboxamide] | 30 to 50% | 
CCCN(C(=O)c1csc(-c2cnn(-c3ccc(F)cc3)c2)n1)[C@@H]1CCNC1 [Compound 54, 2-[1-(4-fluorophenyl)-1H-pyrazol-4-yl]-N-propyl-N-[(3R)-pyrrolidin-3-yl]-1,3-thiazole-4-carboxamide] | 10 to 30% | 
CC(C)N(C(=O)c1csc(-c2cnn(-c3cccnn3)c2)n1)[C@@H]1CCNC1 [Compound 332, N-(propan-2-yl)-2-[1-(pyridazin-3-yl)-1H-pyrazol-4-yl]-N-[(3R)-pyrrolidin-3-yl]-1,3-thiazole-4-carboxamide] |  | acidic vesicle formation relative to a DMSO-treated control (U20S cells, concentration of 10 μM, 24 hours): only a slight increase; increase in acidic vesicle formation (U20S cells, relative to DMSO-treated control (10 μM)): only a slight increase
CC1CCCN(C(=O)c2csc(-c3cnn(-c4ccccc4)c3)n2)C1CN (stereo not shown) [Compound 153, 1-{3-methyl-1-[2-(1-phenyl-1H-pyrazol-4-yl)-1,3-thiazole-4-carbonyl]piperidin-2-yl}methanamine] | 10 to 30% | 
NCCCCCNC(=O)c1cc(-c2cnn(-c3ccccc3)c2)cs1 [Compound 17, N-(5-aminopentyl)-4-(1-phenyl-1H-pyrazol-4-yl)thiophene-2-carboxamide] | 10 to 30% | 
O=C(NC[C@@H]1CNCCO1)c1csc(-c2cnn(-c3ccccc3)c2)n1 [Compound 107, N-{[(2S)-morpholin-2-yl]methyl}-2-(1-phenyl-1H-pyrazol-4-yl)-1,3-thiazole-4-carboxamide] | 10 to 30% | 
